{"source": "patent US20040023897A1", "about": "“Methods for preventing or treating disease mediated by toxin-secreting bacteria” (priority 2001, published 2004)", "origin": "cited, not measured here", "key": {"V-ATPases [1]": {"tested_on": "V-ATPases"}, "V-ATPases [2]": {"tested_on": "V-ATPases", "remark": "listed apart in the source"}}, "data": [{"smiles": "CCN1C(=O)C=CC1=O", "note": "[N-ethylmaleimide]", "values": [{"measurement": "concentration at which inhibition of ATP hydrolysis occurs", "setting": "V-ATPases [1]", "result": "low micromolar concentrations"}]}, {"smiles": "CO/C1=C\\C(C)=C\\[C@@H](C)[C@@H](O)[C@@H](C)C/C(C)=C/C=C/[C@H](OC)[C@@H]([C@@H](C)[C@@H](O)[C@H](C)[C@@]2(O)C[C@@H](O)[C@H](C)[C@@H](C(C)C)O2)OC1=O", "note": "[Bafilomycin A1]", "values": [{"measurement": "concentration at which reversible inhibition of proton translocation occurs", "setting": "V-ATPases [2]", "result": "sub-micromolar concentrations"}]}, {"smiles": "C/C=C/[C@H]1O[C@@](O)([C@@H](C)[C@H](O)[C@H](C)[C@H]2OC(=O)/C(OC)=C/C(C)=C/[C@@H](C)[C@@H](O)[C@@H](CC)[C@@H](O)[C@H](C)C/C(C)=C/C=C/[C@@H]2OC)C[C@@H](O[C@H]2C[C@@H](O)[C@H](OC(N)=O)[C@@H](C)O2)[C@@H]1C", "note": "[concanamycin A]", "values": [{"measurement": "concentration at which reversible inhibition of proton translocation occurs", "setting": "V-ATPases [2]", "result": "sub-micromolar concentrations"}]}, {"smiles": "C(=NC1CCCCC1)=NC1CCCCC1", "note": "[DCCD, N,N′-dicyclohexylcarbodiimide]", "values": [{"measurement": "inhibition of proton pumping", "setting": "V-ATPases [2]; micromolar concentrations of DCCD", "result": "complete and irreversible inhibition"}]}]}
